Experiments:
Format in all cases: cell-based
[1] = system: cMYC; experiment: cMYC Degradation Assay (MDA-MB-231 cells, western blot); conditions: 72 hours
Method: MDA-MB-231 cells were seeded in 6-well format in complete growth media containing 10% serum and incubated for 48 h to ensure 100% confluence. Compound was added to cells at 5 μM and 10 μM final concentrations for a treatment period of 72 hours. Cells were harvested in ice-cold IP buffer and lysates were cleared by centrifugation. Total protein concentration was determined for each sample by Bradford assay. Proteins were separated by 10% SDS-PAGE and blotted onto PVDF membranes. Membranes were blocked with CosmoBio PDVF blocking reagent for 1 hour, followed by overnight incubation with cMYC primary antibody (Abcam) at 4 C. After several washes, the membanes were probed with secondary antibody for 1 hour at room temperature. Fluorescent signal was acquired using an Odyssey CLx (LI-COR) and quantified using ImageJ software.

[2] = system: human cytomegalovirus (HCMV); experiment: Antiviral activity against human cytomegalovirus (HCMV) in MRC5 cells; conditions: for IC50 / IC90: Human betaherpesvirus 5, 168 h, MRC5 cells, MOI 0.01 IU per cell, 7 days post infection, mCherry positive cells; for Selectivity Index: SI50: MRC5 TOX 7 d CC50 relative to HCMV IC50
Method: To assess their antiviral activity, some compounds were tested against human cytomegalovirus (HCMV) in vitro. Human MRC5 cells were grown to confluency (˜1.0×10^4 cells/well) in 96-well plate format in Dulbecco's Modified Eagle Medium (DMEM) supplemented with 10% fetal bovine serum (FBS) 2 mM L-glutamine, 0.1 mM non-essential amino acids, 10 mM HEPES, and 100 U/ml each of penicillin and streptomycin and infected with an HCMV variant expressing mCherry tagged pUL99 (the product of late viral UL99 gene) at a multiplicity of 0.01 infectious unit (IU) per cell. Assays were performed in triplicate. One hour later, medium of the cells was replaced with fresh medium containing the indicated compounds at 25, 12.5, 6.25, 3.13, 1.56, 0.78, 0.39 μM or the carrier in which the compounds are dissolved (DMSO). Final concentration of DMSO was 0.5% in each treatment. Virus yield in the culture was determined at 7 days post infection by quantification of fluorescent (mCherry positive) cells in each well by fluorescent microscopy. Results were plotted using CDD Vault (CDD Vault was developed by Collaborative Drug Discovery, Inc., 1633 Bayshore Hwy, Suite 342, Burlingame, CA 94010) in order to calculate IC50s and IC90s.

[3] = system: MCF7 cells; experiment: MCF7 Cell Growth Inhibition Assay; conditions: Homo sapiens, 24 h, 10% serum, DAPI cell count, 4-pt dilution from 10 μM
Method: MCF7 cells were seeded in 96-well plates at 10% confluence 24 h prior to treatment. Compound was added to cells in full growth media containing 10% serum, using a 2-fold, 4-pt dilution scheme beginning from 10 μM (10, 5, 2.5, 1.25 μM). Plates were incubated for 24 h. After treatment, cells were washed, fixed with 4% PFA and stained with DAPI. Plates were imaged using a Cytation 3 plate reader and nuclear DAPI staining was used to quantify cell number. % Growth relative to vehicle-treated (DMSO) control wells was plotted using Excel (See FIGS. 1-8). IC50s were calculated by fitting the data points to the following standard equation:
Growth=1−[Cmpd]^n/(IC50^n+[Cmpd]^n)
where [Cmpd] is the molar concentration of compound, the IC50 is the concentration where half-maximal effect is seen, and n is the Hill coefficient.

[4] = MRC5 4d Toxicity Assay; conditions: human, confluent MRC5 cells, DAPI cell count, read-out: MRC5 4 d Tox: CC50
Method: MRC5 cells were seeded in 96-well plates 1-2 days prior to treatment to ensure 100% confluence. On the day of treatment, cells were washed once and growth media was replaced. Compound (in DMSO) was added to cells using the following dilution scheme: 25, 12.5, 4.16, 1.4, 0.46, 0.15, 0.05 μM. Test concentrations were assayed in duplicate and included 0 μM (DMSO) control wells. Plates were incubated for 4 days. After treatment, cells were washed, fixed with 4% PFA and stained with DAPI. Plates were imaged using a Cytation 3 plate reader and nuclear DAPI staining was used to quantify cell survival. Dose-response plots were generated using CDD Vault to calculate CC50s.

[5] = MRC5 TOX 7 d; conditions: human

SMILES | MDA-MB-231 cMYC: Fold Decrease in Low MW Band at 5 μM [1] | MDA-MB-231 cMYC: Fold Increase in High MW Band at 5 μM [1] | MDA-MB-231 cMYC: Fold Decrease in Low MW Band at 10 μM [1] | MDA-MB-231 cMYC: Fold Increase in High MW Band at 10 μM [1] | MDA-MB-231 cMYC qualitative degredation [1] | IC50 [2] | IC90 [2] | Selectivity Index: SI50 [2] | GI50 [3] | CC50 at 4 days [4] | CC50 at 7 d [5]
NC(=O)Nc1ccc2c(c1)CN(c1ncc(Cc3ccc(-c4ncccn4)cc3)s1)CC2 [Example 001] | 0.98 fold | 0.84 fold | 1.2 fold | 1.7 fold | no degradation | 1.46 µM | 8.72 µM | >7.1 | 31.7 µM | > 25 µM | > 10.4 µM
NC(=O)Nc1ccc2c(c1)CN(c1ncc(Cc3ccc(N4CCS(=O)(=O)CC4)cc3)s1)CC2 [Example 002] |  |  |  |  |  | 2.59 µM | 7.58 µM | >19.3 |  |  | > 50 µM
NC(=O)Nc1ccc2c(c1)CN(c1ncc(Cc3ccc(N4CCOC4=O)cc3)s1)CC2 [Example 003] |  |  |  |  |  | 5.77 µM | > 6.77 µM | >1.2 | 17.5 µM | > 25 µM | > 6.77 µM
CS(=O)(=O)c1ccc(Cc2cnc(N3CCc4ccc(NC(N)=O)cc4C3)s2)cc1 [Example 004] |  |  |  |  |  | 5.59 µM | > 25 µM | >2.8 | 142 µM | > 25 µM | > 15.8 µM
NC(=O)Nc1ccc2c(c1)CN(c1ncc(Cc3ccc(N4CCOCC4)cc3)s1)CC2 [Example 005] |  |  |  |  |  | 1.43 µM | 2.92 µM | >7.3 |  |  | > 10.4 µM
CN1CC(Oc2ccc(Cc3cnc(N4CCc5ccc(NC(N)=O)cc5C4)s3)cc2)C1 [Example 006] |  |  |  |  |  | 3.37 µM | > 50 µM | 12.9 |  |  | 43.4 µM
NC(=O)Nc1ccc2c(c1)CN(c1ncc(Cc3ccc(-c4ccco4)cc3)s1)CC2 [Example 007] | 0.63 fold | 0.9 fold | 0.8 fold | 1.3 fold | no degradation | 1.19 µM | > 2.89 µM | >2.4 |  |  | > 2.89 µM
CCOc1ccc(Cc2cnc(N3CCc4ccc(N(C)C(N)=O)cc4C3)s2)cc1 [Example 009] |  |  |  |  |  | 2.04 µM | 7.43 µM | >24.4 |  |  | > 50 µM
CN(C(N)=O)c1ccc2c(c1)CN(c1ncc(Cc3ccc(OCC4CC4)cc3)s1)CC2 [Example 010] |  |  |  |  |  | 2.44 µM | 7.97 µM | 6.9 |  |  | 16.9 µM
CN(C(N)=O)c1ccc2c(c1)CN(c1ncc(Cc3ccc(-c4ncccn4)cc3)s1)CC2 [Example 011] | 0.31 fold | 1.53 fold | 0.5 fold | 2.6 fold | partial | 1.48 µM | > 10.4 µM | >7.0 |  |  | > 10.4 µM
CN(C(N)=O)c1ccc2c(c1)CN(c1ncc(Cc3ccc(N4CCOCC4)cc3)s1)CC2 [Example 012] |  |  |  |  |  | 2.13 µM | > 4.24 µM | >23.5 |  |  | > 50 µM
CNC(=O)N(C)c1ccc2c(c1)CN(c1nnc(Cc3ccc(-n4cccn4)cc3)s1)CC2 [Example 013] |  |  |  |  |  | 4.27 µM | 9.25 µM | >11.7 |  |  | > 50 µM
CNC(=O)N(C)c1ccc2c(c1)CN(c1noc(Cc3ccc(-n4cccn4)cc3)n1)CC2 [Example 015] |  |  |  |  |  | 2.51 µM | 5.59 µM | 17.7 |  |  | 44.4 µM
NC(=O)Nc1cnc2c(c1)CN(c1ncc(Cc3ccc(-n4cccn4)cc3)s1)CC2 [Example 016] |  |  |  |  |  | 5.25 µM | > 6.77 µM | >3.0 |  |  | > 15.8 µM
CCOc1ccc(Cc2cnc(N3CCc4ncc(NC(N)=O)cc4C3)s2)cc1 [Example 017] |  |  |  |  |  | 6.46 µM | 47.5 µM | 7.3 |  |  | 47.3 µM
NC(=O)Nc1cnc2c(c1)CN(c1ncc(Cc3ccc(N4CCOCC4)cc3)s1)CC2 [Example 018] |  |  |  |  |  | 16.1 µM | 17.7 µM | >3.1 |  |  | > 50 µM
NC(=O)Nc1ccc2c(c1)CN(c1ncc(Cc3ccc(-n4cccn4)cc3)s1)CC2 [Example 019] | 0.62 fold | 1.18 fold | 0.9 fold | 3.2 fold | partial | 0.791 µM | > 6.61 µM | >8.6 | 11 µM | > 25 µM | > 6.77 µM
CN(C(N)=O)c1ccc2c(c1)CN(c1ncc(Cc3ccc(-n4cccn4)cc3)s1)CC2 [Example 020] |  |  |  |  |  | 1.24 µM | 4.7 µM | 2.9 | 2.3 µM | > 25 µM | 3.63 µM
CNC(=O)Nc1ccc2c(c1)CN(c1ncc(Cc3ccc(-n4cccn4)cc3)s1)CC2 [Example 021] |  |  |  |  |  | 1.17 µM | > 4.43 µM | >2.5 | 18.3 µM | > 25 µM | > 2.89 µM
CN(C)C(=O)Nc1ccc2c(c1)CN(c1ncc(Cc3ccc(-n4cccn4)cc3)s1)CC2 [Example 022] |  |  |  |  |  | 0.536 µM | > 4.43 µM | >8.3 | 18.3 µM | > 25 µM | > 4.43 µM
CNC(=O)N(C)c1ccc2c(c1)CN(c1ncc(Cc3ccc(-n4cccn4)cc3)s1)CC2 [Example 023] | 0.04 fold | 0.22 fold | 0.0 fold | 0.2 fold | total | 0.874 µM | 2.9 µM | >15.5 | 1.2 µM | > 25 µM | > 13.6 µM
CN(C)C(=O)N(C)c1ccc2c(c1)CN(c1ncc(Cc3ccc(-n4cccn4)cc3)s1)CC2 [Example 024] |  |  |  |  |  | 1.14 µM | 5.31 µM | 18.7 | 1.8 µM | > 25 µM | 21.4 µM

— US20240109883A1, “Anti-Tumor Compositions and Methods” (priority 2020, published 2024)
